# Source: patent publication US20060154236A1, “Computer-assisted analysis” (priority 2004, published 2006)
# Starred links: 1 amine or outer side, 2 acyl side, 3 side chain; linkers in the order of their positions; H or OH if unused. Positions of bridges follow the written chain, without caps; N, C: chain ends. Non-standard residues stand in square brackets, D forms with d. Residues, ends and D or L forms follow the SMILES beside them. Chains are numbered I, II in the order given. Actinocin(9to1) = Cc1c2oc3c(C)ccc(C(=O)[*:1])c3nc-2c(C(=O)[*:2])c(N)c1=O; NMeV = CN[C@H](C(=O)O)C(C)C; Nle = CCCC[C@H](N)C(=O)O; Sar = CNCC(=O)O
# System: HeLa (human cancer) cells
# Test: Cytological dose-response profiling by automated fluorescence microscopy (KS statistic z-scores, 93 descriptors)
# Type: cell-based
# Conditions: HeLa cells, 20 hrs, thirteen 3-fold dilutions; Y = profile response above signal threshold
# Description: The known drug set was chosen to cover common mechanisms of toxicity or therapeutic action in cancer and other diseases, and to include several groups with a common target (macromolecule or pathway) but unrelated structures. We analyzed thirteen 3-fold dilutions of each drug, covering a final concentration range on cells from micromolar to picomolar. (Table 3 and Materials & Methods). HeLa (human cancer) cells were cultured in 384-well plates to near confluence, treated with drugs for 20 hrs, fixed, and stained with fluorescent probes for various cell components and processes. We chose 11 distinct probes that covered a range of cell biology, multiplexing a DNA stain and two antibodies per well (the probe sets are: (SC35, anillin), (α-tubulin, actin), (phospho-p38, phospho-ERK), (p53, cFos), (phospho-CREB, calmodulin)). Using automated fluorescence microscopy, we collected images of up to ˜8000 cells from each well. 26 wells on each plate were treated only with DMSO to generate a control population. The experiment was performed twice in parallel to provide a replicate dataset. Image segmentation procedures were used to automatically identify nuclei and nuclear organelles, and cytoplasmic regions were approximated as an annulus surrounding each identified nucleus (FIG. 31A). For each cell, region, and probe, a set of descriptors was measured. These included measures of size, shape, and intensity, as well as ratios of intensities between regions (93 descriptors total, Table S3).
# For profiling studies, it is useful to reduce each population of descriptor values to a single number. […] We devised a measure based on the Kolmogorov-Smirnov (KS) statistic, allowing nonparametric comparison of experimental and control distributions from the same plate (FIGS. 31B and 35). […] In particular, the relationship between z-score and the original physical measure may be non-linear.
# Cell culture. 20 hours before compound addition, Hela cells grown in […] dishes were trypsinized, resuspended in DMEM supplemented with 10% FCS and 10 ug/mL penicillin/streptomycin, and plated in 384-well plates at an initial density of 3,000 cells per well, 40 uL per well. Compounds were purchased from Sigma (St. Louis, MO), Calbiochem (EMD Biosciences, San Diego, Calif.) and Tocris (Elliksville, MO) and are listed in Table 2. Compound stocks were prepared in DMSO and then arrayed on 384-well plates in 16 consecutive 1:3 serial dilutions in DMSO as outlined in Table 3. The highest and two lowest dilutions (rows A, 0 and P) were not used for subsequent analysis as the wells due to persistent edge effects, leaving us with a series of 13 dilutions. Each stock was diluted 16-fold in warmed culture medium, and 8 μl of this solution was added to the plated cells, resulting in a 96-fold final dilution. All conditions were performed in duplicate in separate plates. Cells were incubated at 37° C. for 20 hours, then fixed in 3% formaldehyde in PBS. All liquid handling was performed using a programmed TekBench (TekCel, Hopkinton, Mass.).
# Markers. Five sets of markers were stained by standard immunofluorescence methods in this study.
row,Compound,Used in clustering (FIG. 33)
1,"CNc1ccc2oc(C[C@H]3O[C@@]4(CC[C@H]3C)O[C@H]([C@H](C)C(=O)c3ccc[nH]3)[C@H](C)C[C@H]4C)nc2c1C(=O)O [Compound 2, A23187 free acid]",Y
2,"CCCC[C@@H](C=O)NC(=O)[C@H](CC(C)C)NC(=O)[C@H](CC(C)C)NC(C)=O [Compound 5, N-acetyl-Leu-Leu-norleucinal] (Ac-Leu-Leu-[Nle]-aldehyde)",Y
3,"NS(=O)(=O)c1ccc(-n2nc(C(F)(F)F)cc2-c2ccc(Cl)cc2)cc1 [Compound 79, SC236]",Y
4,"COC(=O)Nc1nc2ccc(C(=O)c3cccs3)cc2[nH]1 [Compound 91, Nocodazole]",Y
5,"C[C@@H]1C[C@H]2[C@@H]3CCC4=CC(=O)C=C[C@]4(C)[C@@]3(F)[C@@H](O)C[C@]2(C)[C@@]1(O)C(=O)CO [Compound 19, Dexamethasone]",Y
6,"CC[C@H](C)C(=O)O[C@H]1CCC=C2C=C[C@H](C)[C@H](CC[C@@H]3C[C@@H](O)CC(=O)O3)[C@H]21 [Compound 37, Mevastatin]",Y
7,"C[S+]([O-])c1ccc(-c2nc(-c3ccncc3)c(-c3ccc(F)cc3)[nH]2)cc1 (stereo not shown) [Compound 80, SB203580]",Y
8,"COc1cc([C@@H]2c3cc4c(cc3[C@H](O)[C@H]3COC(=O)[C@H]23)OCO4)cc(OC)c1OC [Compound 44, Podophyllotoxin]",Y
9,Tunicamycin [Compound 55],Y
10,"C=C1[C@@H](C)[C@H]2[C@H](Cc3ccccc3)NC(=O)[C@]23[C@H](OC(C)=O)/C=C/[C@@](C)(O)C(=O)[C@@H](C)C/C=C/[C@H]3[C@@H]1O [Compound 16, Cytochalasin D]",Y
11,Amanitin [Compound 3],Y
12,"C[C@H]1CCC/C=C/[C@@H]2C[C@H](O)C[C@H]2[C@H](O)/C=C/C(=O)O1 [Compound 8, Brefeldin A]",Y
13,"CC(/C=C/C(=O)NO)=C\[C@@H](C)C(=O)c1ccc(N(C)C)cc1 [Compound 54, Trichostatin]",Y
14,"CCCCCCCCCCCCCC(=O)O[C@@H]1[C@@H](C)[C@@]2(O)[C@@H](C=C(CO)C[C@]3(O)C(=O)C(C)=C[C@@H]23)[C@@H]2C(C)(C)[C@]12OC(C)=O [Compound 43, PMA]",Y
15,"C[C@@]1(CO)[C@H](O)CC[C@@]2(C)[C@H]1CC[C@H]1C[C@@H]3C[C@@]12CC[C@]3(O)CO [Compound 81, Aphidicolin]",Y
16,"COc1cc2c(c(OC)c1OC)-c1ccc(OC)c(=O)cc1[C@@H](NC(C)=O)CC2 [Compound 13, Colchicine]",Y
17,"CC[C@]1(O)C[C@@H]2CN(CCc3c([nH]c4ccccc34)[C@@](C(=O)OC)(c3cc4c(cc3OC)N(C)[C@H]3[C@@](O)(C(=O)OC)[C@H](OC(C)=O)[C@]5(CC)C=CCN6CC[C@]43[C@@H]65)C2)C1 [Compound 57, Vinblastine]",Y
18,"COc1ccc(C[C@H]2NC[C@H](O)[C@H]2OC(C)=O)cc1 [Compound 7, Anisomycin]",Y
19,"COc1cccc2c1C(=O)c1c(O)c3c(c(O)c1C2=O)C[C@@](O)(C(=O)CO)C[C@@H]3O[C@H]1C[C@H](N)[C@H](O)[C@H](C)O1 [Compound 20, Doxorubicin]",Y
20,"COc1ccc(C[C@H](N)C(=O)N[C@H]2[C@@H](O)[C@H](n3cnc4c(N(C)C)ncnc43)O[C@@H]2CO)cc1 [Compound 45, Puromycin]",Y

row,Compound,Used in clustering (FIG. 33)
1,"COc1cccc(-c2cc(=O)c3ccccc3o2)c1N [Compound 63, PD98059]",Y
2,"CN(C)CCCN1c2ccccc2Sc2ccc(Cl)cc21 [Compound 62, Chloropromazine]",Y
3,"CN[C@@H]1C[C@H]2O[C@@](C)([C@@H]1OC)n1c3ccccc3c3c4c(c5c6ccccc6n2c5c31)C(=O)NC4 [Compound 51, Staurosporine]",Y
4,"C/C1=C/C(=O)O[C@@H]2C[C@@H](CC[C@H](C)/C=C\CC1)O[C@@](O)([C@@H]1CSC(=O)N1)C2 [Compound 36, Latrunculin B]",Y
5,"CC(=O)O[C@H]1C(=O)[C@@]2(C)[C@H]([C@H](OC(=O)c3ccccc3)[C@]3(O)C[C@H](OC(=O)[C@H](O)[C@@H](NC(=O)c4ccccc4)c4ccccc4)C(C)=C1C3(C)C)[C@]1(OC(C)=O)CO[C@@H]1C[C@@H]2O [Compound 53, Taxol]",Y
6,"C/C(=C\c1csc(C)n1)[C@@H]1C[C@@H]2O[C@]2(C)CCC[C@H](C)[C@H](O)[C@@H](C)C(=O)C(C)(C)[C@@H](O)CC(=O)O1 [Compound 77, Epothilone B]",Y
7,Oxamflatin [Compound 78],Y
8,"CCC(=O)CCCCC[C@@H]1NC(=O)[C@H]2CCCCN2C(=O)[C@H]([C@@H](C)CC)NC(=O)[C@H](Cc2cn(OC)c3ccccc23)NC1=O [Compound 76, Apicidin]",Y
9,"Cc1cc(O)c2c(c1)C(=O)c1cc(O)cc(O)c1C2=O [Compound 22, Emodin]",Y
10,"CN1CCN(C2=Nc3cc(Cl)ccc3Nc3ccccc32)CC1 [Compound 64, Clozapine]",Y
11,"CC1=C(/C=C/C(C)=C/C=C/C(C)=C/C(=O)O)C(C)(C)CCC1 [Compound 48, Retinoic acid (trans)]",Y
12,"Cc1c2oc3c(C)ccc(C(=O)N[C@@H]4C(=O)N[C@H](C(C)C)C(=O)N5CCC[C@H]5C(=O)N(C)CC(=O)N(C)[C@@H](C(C)C)C(=O)O[C@@H]4C)c3nc-2c(C(=O)N[C@@H]2C(=O)N[C@H](C(C)C)C(=O)N3CCC[C@H]3C(=O)N(C)CC(=O)N(C)[C@@H](C(C)C)C(=O)O[C@@H]2C)c(N)c1=O [Compound 4, Actinomycin D] (I: T[dV]P[Sar][NMeV] / II: T[dV]P[Sar][NMeV]; ester I:1-I:C, II:1-II:C; linker I:N-II:N via Actinocin(9to1))",Y
13,"C=C1[C@@H](O)[C@@H]2O[C@]3(CC[C@H](/C=C/[C@@H](C)[C@@H]4CC(C)=C[C@@]5(O[C@H](C[C@@](C)(O)C(=O)O)CC[C@H]5O)O4)O3)CC[C@H]2O[C@@H]1[C@@H](O)C[C@H](C)[C@H]1O[C@@]2(CCCCO2)CC[C@H]1C [Compound 41, Okadaic acid]",Y
14,"O=C1Nc2ccccc2/C1=C1/Nc2ccccc2/C1=N\O [Compound 32, Indirubin monoxime]",Y
15,"CC[C@H]1/C=C/C=C/C[C@@H](C)[C@H](O)[C@@](C)(O)C(=O)[C@@H](C)[C@H](O)[C@@H](C)C(=O)[C@@H](C)[C@H](O)[C@@H](C)/C=C/C(=O)O[C@@H]2[C@H](C)[C@H](CC1)O[C@]1(CC[C@H](C)[C@H](C[C@@H](C)O)O1)[C@H]2C [Compound 90, Oligomycin]",Y
16,"CCOC(=O)C1=C(C)NC(=S)NC1c1cccc(O)c1 (stereo not shown) [Compound 39, Monastrol]",Y
17,"C/C1=C\[C@H](C)C[C@H](C)OC(=O)C[C@H](c2ccc(O)cc2)NC(=O)[C@@H](Cc2c(Br)[nH]c3ccccc23)N(C)C(=O)[C@H](C)NC(=O)[C@@H](C)C1 [Compound 34, Jasplakinolide]",Y
18,"CCC(C)(C)C(=O)O[C@H]1C[C@@H](C)C=C2C=C[C@H](C)[C@H](CC[C@@H]3C[C@@H](O)CC(=O)O3)[C@H]21 [Compound 70, Simavastatin]",Y
19,"CN(Cc1cnc2nc(N)nc(N)c2n1)c1ccc(C(=O)N[C@@H](CCC(=O)O)C(=O)O)cc1 [Compound 83, Methotrexate]",Y
20,"O=C1Cc2c([nH]c3ccc([N+](=O)[O-])cc23)-c2ccccc2N1 [Compound 6, Alsterpaullone]",Y
